Results: PubChem BioAssay AID2060619 (Molecular Pharmacology Branch, DTP, NCI, 2025)
Where “and” joins values, the source holds several entries; their conditions need not be identical. Equal entries are not always repeated.

Tested on: 323965-272-R-J2-PDC complex spheroid viability
Experiment: Anticancer human tumor 323965-272-R-J2-PDC patient-derived pancreatic carcinoma cell line growth inhibition [CLK]
Details: for viability, T/C: stronger effect = lower value
Description: A high-throughput screen of multi-cell type tumor spheroids was designed to identify active combinations of […] and targeted small molecules. Complex spheroids include a stromal component modeled by human endothelial cells (HUVEC) and fibroblasts modeled by human mesenchymal stem cells (MSCs). The concentration ranges selected for each drug and investigational agent were based upon clinically achievable concentrations if the clinical Cmax of the agent was known.
Compounds. The drugs and investigational agents: cirtuvivint (SM08502; NSC835563), CC-671 (NSC850746), vemurafenib (NSC761431), tapotoclax (NSC804041), sotorasib (NSC818433), adagrasib (NSC831453), MRTX-1133 (NSC836407), BAY2416964 (NSC825713), copanlisib (NSC816437), inavolisib (NSC800729), abemaciclib (NSC768073), osimertinib (NSC779217), entinostat (NSC756642), eltanexor (KPT-8602, NSC794443), venetoclax (NSC766270), ceralasertib (NSC777638), bortezomib (NSC756655), olaparib (NSC753686), talazoparib (NSC767125), alisertib (NSC759677), peposertib (NSC802822), gemcitabine (NSC613327), 5-fluorouracil (NSC19893), SN-38 (NSC673596), oxaliplatin (NSC266046), paclitaxel (NSC125973), and doxorubicin (NSC123127), were obtained from the National Cancer Institute (NCI) Developmental Therapeutics Program Chemical Repository. The FDA-approved anticancer drug set is available from the Developmental Therapeutics Program at https://dtp.cancer.gov/organization/dscb/obtaining/available plates.htm. […] The stock solutions were prepared in dimethyl sulfoxide (DMSO, Sigma-Aldrich, St. Louis, MO, cat. D2650), except for the platinum complexes which were prepared in saline (Quality Biological, Gaithersburg, MD, cat. 114-055-101), at 800-fold the tested concentration and stored at -70 degrees C prior to their use. All drugs and investigational agents were tested over a range starting from a high concentration at or near the clinical Cmax and decreasing in half-log increments. If the clinical Cmax for an agent had not been determined, the highest concentration tested was 10 microM.
Cell Culture. All cells were maintained in an incubator at 37 degrees C and 5% CO2 with 95% humidity. The PDC lines were cultured according to standard operating procedures established by the NCI PDMR. Briefly, all PDCs were thawed and cultured in Matrigel-coated flasks prepared with a working solution of 1X Ham's F-12 nutrient mix, without supplementation (Invitrogen, Waltham, MA, cat. 11765054), 100 U/mL penicillin-streptomycin (Invitrogen, cat. 15140122), and 2.5% Matrigel (Corning Inc., Corning, NY, cat. 354248) for the first three passages. The 947758-054-R-J2-PDC line was cultured in 6B/Colon 1A media, which includes advanced DMEM/F-12 (Thermo Fisher Scientific, cat. 12634028), 10 mM HEPES (Thermo Fisher Scientific, cat. 15630080), 1X GlutaMAX supplement (Thermo Fisher Scientific, cat. 35050061), 0.1 mg/mL primocin (InvivoGen, cat. ant-pm-2), 10% defined fetal bovine serum, heat inactivated (HyClone Laboratories Inc., cat. SH30070.03HI), 1.25 mM N-Acetyl-L-cysteine (Sigma-Aldrich, cat. A9165), 10 mM nicotinamide (Sigma-Aldrich, cat. N0636), 1X B-27 supplement (Thermo Fisher Scientific, cat. 17504044), 1X N-2 supplement (Thermo Fisher Scientific, cat. 17502048), and 10 microM Y-27632 dihydrochloride (Tocris Bioscience, cat. 1254). The 876862-298-R-J1-PDC was cultured in 6E media, which includes all 6B/Colon 1A media components plus 50% L-WRN conditioned media (ATCC, cat. CRL-3276), 50 ng/mL recombinant human EGF recombinant protein (hEGF; Thermo Fisher Scientific, cat. PHG0311), 10 ng/mL recombinant human fibroblast growth factor 10 (hGFG-10; PeproTech, cat. 100-26), 1 ng/mL recombinant human fibroblast growth factor 2 (hFGF-2; PeproTech, cat. 100-18B), and 1 µM prostaglandin E2 (PGE2; Tocris, cat. 2296). The 227483-062-R1-J1-PDC line was cultured in Panc media, containing all 6E components except hFGF-2, with the addition of 500 nM SB-431542 (Selleckchem, cat. S1067) and 10 nM gastrin (Tocris, cat. 3006). […]
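Also: spheroids exposed to agents for seven days before readout.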
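For viability, T/C in this document: percent of DMSO vehicle control wells so 100% = untreated growth.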

CC1(C)CCC(CN2CCN(c3ccc(C(=O)NS(=O)(=O)c4ccc(NCC5CCOCC5)c([N+](=O)[O-])c4)c(Oc4cnc5[nH]ccc5c4)c3)CC2)=C(c2ccc(Cl)cc2)C1 + CN1CCN(c2cc(C(=O)Nc3cc4cc(-c5cnn(C)c5)ccc4cn3)ccn2)CC1
IC50 (curve of first compound, second compound 0.0316 µM): 4.96 µM
IC50 (curve of first compound, second compound 0.1 µM): 3.6 µM
IC50 (curve of first compound, second compound 0.316 µM): < 0.0316 µM
IC50 (curve of first compound, second compound 1 µM): < 0.0316 µM
IC50 (curve of first compound, second compound 3.16 µM): < 0.0316 µM
IC50 (curve of first compound, second compound 10 µM): < 0.0316 µM
viability, T/C (second compound 0.0316 µM, first compound 0.0316 µM): 91.3%
viability, T/C (second compound 0.0316 µM, first compound 0.1 µM): 97.7%
viability, T/C (second compound 0.0316 µM, first compound 0.316 µM): 93.8%
viability, T/C (second compound 0.0316 µM, first compound 1 µM): 92.2%
viability, T/C (second compound 0.0316 µM, first compound 3.16 µM): 78.8%
viability, T/C (second compound 0.0316 µM, first compound 10 µM): 5.11%
viability, T/C (second compound 0.1 µM, first compound 0.0316 µM): 69.6%
viability, T/C (second compound 0.1 µM, first compound 0.1 µM): 63.8%
viability, T/C (second compound 0.1 µM, first compound 0.316 µM): 65.4%
viability, T/C (second compound 0.1 µM, first compound 1 µM): 68.5%
viability, T/C (second compound 0.1 µM, first compound 3.16 µM): 55.8%
viability, T/C (second compound 0.1 µM, first compound 10 µM): 5.08%
viability, T/C (second compound 0.316 µM, first compound 0.0316 µM): 27.8%
viability, T/C (second compound 0.316 µM, first compound 0.1 µM): 24.5%
viability, T/C (second compound 0.316 µM, first compound 0.316 µM): 28.6%
viability, T/C (second compound 0.316 µM, first compound 1 µM): 27.1%
viability, T/C (second compound 0.316 µM, first compound 3.16 µM): 20.2%
viability, T/C (second compound 0.316 µM, first compound 10 µM): 4.31%
viability, T/C (second compound 1 µM, first compound 0.0316 µM): 3.4%
viability, T/C (second compound 1 µM, first compound 0.1 µM): 3.32%
viability, T/C (second compound 1 µM, first compound 0.316 µM): 4.86%
viability, T/C (second compound 1 µM, first compound 1 µM): 2.95%
viability, T/C (second compound 1 µM, first compound 3.16 µM): 2.45%
viability, T/C (second compound 1 µM, first compound 10 µM): 2.47%
viability, T/C (second compound 3.16 µM, first compound 0.0316 µM): 3.55%
viability, T/C (second compound 3.16 µM, first compound 0.1 µM): 3.34%
viability, T/C (second compound 3.16 µM, first compound 0.316 µM): 3.03%
viability, T/C (second compound 3.16 µM, first compound 1 µM): 2.11%
viability, T/C (second compound 3.16 µM, first compound 3.16 µM): 1.06%
viability, T/C (second compound 3.16 µM, first compound 10 µM): 0.14%
viability, T/C (second compound 10 µM, first compound 0.0316 µM): 4.06%
viability, T/C (second compound 10 µM, first compound 0.1 µM): 3.26%
viability, T/C (second compound 10 µM, first compound 0.316 µM): 3.77%
viability, T/C (second compound 10 µM, first compound 1 µM): 2.06%
viability, T/C (second compound 10 µM, first compound 3.16 µM): 0.92%
viability, T/C (second compound 10 µM, first compound 10 µM): 3.22%

Nc1ccccc1NC(=O)c1ccc(CNC(=O)OCc2cccnc2)cc1
viability, T/C (compound 0.0316 µM): 115% and 110%
viability, T/C (compound 0.1 µM): 103% and 104%
viability, T/C (compound 0.316 µM): 101% and 95.5%
viability, T/C (compound 1 µM): 89.1% and 86.3%
viability, T/C (compound 3.16 µM): 72.6% and 61.8%
viability, T/C (compound 10 µM): 47.9% and 43.9%
IC50 (curve of compound): 9.39 µM and 6.89 µM
